Results: PMC8621172, “Manipulating Estrogenic/Anti-Estrogenic Activity of Triphenylethylenes towards Development of Novel Anti-Neoplastic SERMs” (International Journal of Molecular Sciences, 2021)

Experiments:
MCF-7 cells = assay: NCI growth inhibition on MCF-7 (single dose and five-dose, SRB); format: cell-based, human; settings: for inhibition at 10 µM / GI50: Homo sapiens, MCF7; for GI50: MCF-7, five-dose assay, 48 h
Procedure: Compounds were submitted to the Developmental Therapeutics Program (DTP) of the National Cancer Institute (NCI). The program uses a panel of 60 human tumor cell lines representing nine tissue types, including leukemia, non-small cell lung cancer (NSCLC), melanoma, colon cancer, ovarian cancer, CNS cancer, renal cancer, prostate cancer, and breast cancer, to screen for potential new anti-cancer agents. […] Primary screening of synthesized compounds was performed by testing a single high dose of 10 µM in the full NCI-60 panel. The percent growth of treated cells relative to the no-drug control and relative to the time zero number of cells was measured, and a mean graph was provided. The percentage inhibition was then calculated by subtracting the values obtained from 100.
All compounds were subjected to the NCI in vitro disease-oriented human cells screening panel assay. The human tumor cell lines of the cancer-screening panel are grown in RPMI 1640 medium containing 5% fetal bovine serum and 2 mM L-glutamine. For a typical screening experiment, cells are inoculated into 96-well microtiter plates in 100 μL at plating densities ranging from 5000 to 40,000 cells/well depending on the doubling time of individual cell lines. After cell inoculation, the microtiter plates are incubated at 37 °C, 5% CO2, 95% air, and 100% relative humidity for 24 h prior to the addition of experimental drugs. After 24 h, two plates of each cell line are fixed in situ with TCA to represent a measurement of the cell population for each cell line at the time of drug addition. Experimental drugs are solubilized in dimethyl sulfoxide at 400-fold the desired final maximum test concentration and stored frozen prior to use. At the time of drug addition, an aliquot of frozen concentrate is thawed and diluted to twice the desired final maximum test concentration with complete medium containing 50 μg/mL gentamicin. Additional four, 10-fold, or ½ log serial dilutions are made to provide a total of five drug concentrations plus control. Aliquots of 100 μL of these different drug dilutions are added to the appropriate microtiter wells already containing 100 μL of medium, resulting in the required final drug concentrations. Following drug addition, the plates are incubated for an additional 48 h at 37 °C, 5% CO2, 95% air, and 100% relative humidity. For adherent cells, the assay is terminated by the addition of cold TCA. Cells are fixed in situ by the gentle addition of 50 μL of cold 50% (w/v) TCA (final concentration, 10% TCA) and incubated for 60 min at 4 °C. The supernatant is discarded, and the plates are washed five times with tap water and air-dried. Sulforhodamine B (SRB) solution (100 μL) at 0.4% (w/v) in 1% acetic acid is added to each well, and plates are incubated for 10 min at room temperature. After staining, unbound dye is removed by washing five times with 1% acetic acid, and the plates are air-dried. Bound stain is subsequently solubilized with a 10 mM trizma base, and the absorbance is read on an automated plate reader at a wavelength of 515 nm. For suspension cells, the methodology is the same except that the assay is terminated by fixing settled cells at the bottom of the wells by gently adding 50 μL of 80% TCA (final concentration, 16% TCA). Compounds are screened at a dose of 10 µM, hits showing mean growth inhibition over 60 cell lines >50% are escalated for 5-dose screening assay. To construct a dose-response curve, about 60 cell lines of nine tumor subpanels were incubated with five concentrations (0.01–100 μM) for each compound. Three response parameters (GI50, TGI, and LC50) were calculated for each cell line.

[1] = system: Ishikawa endometrial adenocarcinoma cell line; assay: Alkaline phosphatase (AlkP) activity in Ishikawa cells; format: cell-based, human; settings: for Relative alkaline phosphatase activity: 72 h, DMSO set to 1
Procedure: Alkaline phosphatase (AlkP) activity in these human endometrial cancer cells is markedly stimulated by estrogens.
Because of the potential SERM character of the compounds tested, their estrogenic effects were studied in an endometrial-derived cell culture model, the human endometrial adenocarcinoma cell line Ishikawa. […] All compounds were screened at two concentrations, 0.1 and 1 µM. Its agonistic effect was compared to the vehicle control DMSO (data shown in Supplementary Materials). […] The four compounds were studied in a concentration range of 1 nM to 10 µM.
Estrogens stimulate the activity of alkaline phosphatase (AlkP) in Ishikawa cells (human endometrial adenocarcinoma cells; kindly provided by Prof. Masato Nishida, National Hospital Organization, Kasumigaura Medical Center, Japan). This enzyme activity is estimated by using the chromogen substrate (4-nitrophenylphosphate). […] The procedure was modified by Littlefield et al., 1990 [42].
After 72 h incubation, cells were harvested, washed twice with PBS, and incubated at −80 °C for about 30 min to lyse the cells. After thawing, the lysates were resuspended in reaction buffer (274 mM mannitol, 100 mM CAPS, 4 mM MgCl2, pH 10.4) containing 4 mM p-nitrophenylphosphate (NPP). After incubation for 1 h in the dark, AlkP activity was assayed by using the hydrolysis of p-nitrophenylphosphate to p-nitrophenol at pH 10.4 and the spectrometric determination of the kinetic of the product formation at 405 nm. All compounds were tested in technical triplicates and biological triplicates. Statistical analysis was performed by analysis of variance (ANOVA) and Tukey’s post-hoc test with the significance level of p < 0.05.

## COc1ccc(C(C)=C(c2ccc(Cl)cc2)c2ccc(OCCN3CCCC3)cc2)cc1F [Compound 16, E/Z-1-(2-{4-[1-(4-Chlorophenyl)-2-(3-fluoro-4-methoxyphenyl)-propenyl]-phenoxy}-ethyl)-pyrrolidine]
MCF-7 cells; 10 µM
  inhibition at 10 µM: 90%
MCF-7 cells
  GI50: 2.41 µM
[1]; 1 µM
  Relative alkaline phosphatase activity: 0.98 ± 0.53

## COc1ccc(C(C)=C(c2ccc(Cl)cc2)c2ccc(OCCN3CCCCC3)cc2)cc1F [Compound 17, E/Z-1-(2-{4-[1-(4-Chlorophenyl)-2-(3-fluoro-4-methoxyphenyl)-propenyl]-phenoxy}-ethyl)-piperidine]
MCF-7 cells; 10 µM
  inhibition at 10 µM: 85%
MCF-7 cells
  GI50: 3.34 µM
[1]; 1 µM
  Relative alkaline phosphatase activity: 1.31 ± 0.41

## COc1ccc(C(C)=C(c2ccc(Cl)cc2)c2ccc(OCCN3CCOCC3)cc2)cc1F [Compound 18, E/Z-4-(2-{4-[1-(4-Chlorophenyl)-2-(3-fluoro-4-methoxyphenyl)-propenyl]-phenoxy}-ethyl)-morpholine]
MCF-7 cells; 10 µM
  Growth Inhibition on MCF-7 (%): No inhibition
[1]; 1 µM
  Relative alkaline phosphatase activity: 1.01 ± 0.24

## COc1ccc(C(C)=C(c2ccc(Cl)cc2)c2ccc(OCCN3CCCCCC3)cc2)cc1F [Compound 19, E/Z-1-(2-{4-[1-(4-Chlorophenyl)-2-(3-fluoro-4-methoxyphenyl)-propenyl]-phenoxy}-ethyl)-azepane]
MCF-7 cells; 10 µM
  inhibition at 10 µM: 75.9%
MCF-7 cells
  GI50: 3.59 µM
[1]; 1 nM
  Relative alkaline phosphatase activity: 1.02 ± 0.13
[1]; 10 nM
  Relative alkaline phosphatase activity: 1.06 ± 0.11
[1]; 100 nM
  Relative alkaline phosphatase activity: 1.75 ± 0.08
[1]; 10 µM
  Relative alkaline phosphatase activity: 0.04 ± 0.04
[1]; 72 h treatment, 5-dose assay 1 nM to 10 µM
  effect on AlkP activity (in words): increase the AlkP activity in a dose-pendent manner

## COc1ccc(C(C)=C(c2ccc(Cl)cc2)c2ccc(OCCN(C)C)cc2)cc1F [Compound 20, E/Z-(2-{4-[1-(4-Chlorophenyl)-2-(3-fluoro-4-methoxyphenyl)-propenyl]-phenoxy}-ethyl)-dimethyl-amine]
MCF-7 cells; 10 µM
  inhibition at 10 µM: 68.2%
[1]; 1 µM
  Relative alkaline phosphatase activity: 1.12 ± 0.46

## CCN(CC)CCOc1ccc(C(=C(C)c2ccc(OC)c(F)c2)c2ccc(Cl)cc2)cc1 [Compound 21, E/Z-(2-{4-[1-(4-Chlorophenyl)-2-(3-fluoro-4-methoxyphenyl)-propenyl]-phenoxy}-ethyl)-diethyl-amine]
MCF-7 cells; 10 µM
  inhibition at 10 µM: 29.7%
[1]; 1 µM
  Relative alkaline phosphatase activity: 0.90 ± 0.13
